# Test results as given in the supplement of paper PMC10307832.
# Assays:
# Assay in all cases: relative viability (nuclei count vs DMSO), 5 days (fraction); higher = more cells survive
# HCC-827 = system: HCC-827
# Procedure, shortened: (§1)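 Lung cancer cell lines in 1536-well plates got either a single drug or a fixed anchor-drug dose together with five library-drug doses (not always all listed) in √10 steps, by pin tool, on the day after seeding. Nuclei were counted after 5 days, and relative viability is the treated-to-vehicle ratio of nuclei counts. Values are medians of duplicate plates.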
# NCI-H2087 = system: NCI-H2087
# Procedure, shortened: as §1
# CAL-12T = system: CAL-12T
# Procedure, shortened: as §1
# HCC-366 = system: HCC-366
# Procedure, shortened: as §1
# NCI-H1993 = system: NCI-H1993
# Procedure, shortened: as §1
# NCI-H727 = system: NCI-H727
# Procedure, shortened: as §1
# LCLC-97TM1 = system: LCLC-97TM1
# Procedure, shortened: as §1
# COR-L 105 = system: COR-L 105
# Procedure, shortened: as §1
# NCI-H2009 = system: NCI-H2009
# Procedure, shortened: as §1
# NCI-H2170 = system: NCI-H2170
# Procedure, shortened: as §1
# HOP-62 = system: HOP-62
# Procedure, shortened: as §1
# LXF-289 = system: LXF-289
# Procedure, shortened: as §1
# PC-3 [JPC-3] = system: PC-3 [JPC-3]
# Procedure, shortened: as §1
# PC-14 = system: PC-14
# Procedure, shortened: as §1
# HARA = system: HARA
# Procedure, shortened: as §1
# COR-L23 = system: COR-L23
# Procedure, shortened: as §1
# HCC-44 = system: HCC-44
# Procedure, shortened: as §1
# LC-2-ad = system: LC-2-ad
# Procedure, shortened: as §1
# BEN = system: BEN
# Procedure, shortened: as §1
# SK-MES-1 = system: SK-MES-1
# Procedure, shortened: as §1
# LU99A = system: LU99A
# Procedure, shortened: as §1
# HCC-15 = system: HCC-15
# Procedure, shortened: as §1
# NCI-H2126 = system: NCI-H2126
# Procedure, shortened: as §1
smiles,measurement,setting,value
O=c1[nH]c2ccccc2n1C1CCN(CCCC(c2ccc(F)cc2)c2ccc(F)cc2)CC1 [Pimozide] + CS(=O)(=O)CCNCc1ccc(-c2ccc3ncnc(Nc4ccc(OCc5cccc(F)c5)c(Cl)c4)c3c2)o1 [Lapatinib] (partner 2 µM),relative viability,HCC-827; first compound 0.253 µM,0.205
same,relative viability,HCC-827; first compound 0.8 µM,0.189
same,relative viability,HCC-827; first compound 2.53 µM,0.179
same,relative viability,HCC-827; first compound 8 µM,0.194
same,relative viability,NCI-H2087; first compound 0.08 µM,0.999
same,relative viability,NCI-H2087; first compound 0.253 µM,1.1
same,relative viability,NCI-H2087; first compound 0.8 µM,0.825
same,relative viability,NCI-H2087; first compound 2.53 µM,1.06
same,relative viability,NCI-H2087; first compound 8 µM,0.847
same,relative viability,CAL-12T; first compound 0.08 µM,0.57
same,relative viability,CAL-12T; first compound 0.253 µM,0.588
same,relative viability,CAL-12T; first compound 0.8 µM,0.551
same,relative viability,CAL-12T; first compound 2.53 µM,0.538
same,relative viability,CAL-12T; first compound 8 µM,0.625
same,relative viability,HCC-366; first compound 0.08 µM,0.971
same,relative viability,HCC-366; first compound 0.253 µM,1.02
same,relative viability,HCC-366; first compound 0.8 µM,0.988
same,relative viability,HCC-366; first compound 2.53 µM,1.01
same,relative viability,HCC-366; first compound 8 µM,1.06
same,relative viability,NCI-H1993; first compound 0.08 µM,0.894
same,relative viability,NCI-H1993; first compound 0.253 µM,0.714
same,relative viability,NCI-H1993; first compound 0.8 µM,0.697
same,relative viability,NCI-H1993; first compound 2.53 µM,0.788
same,relative viability,NCI-H1993; first compound 8 µM,0.901
same,relative viability,NCI-H727; first compound 0.08 µM,0.8
same,relative viability,NCI-H727; first compound 0.253 µM,0.922
same,relative viability,NCI-H727; first compound 0.8 µM,0.85
same,relative viability,NCI-H727; first compound 2.53 µM,0.754
same,relative viability,NCI-H727; first compound 8 µM,0.769
same,relative viability,LCLC-97TM1; first compound 0.08 µM,0.957
same,relative viability,LCLC-97TM1; first compound 0.253 µM,0.856
same,relative viability,LCLC-97TM1; first compound 0.8 µM,0.957
same,relative viability,LCLC-97TM1; first compound 2.53 µM,0.981
same,relative viability,LCLC-97TM1; first compound 8 µM,0.814
same,relative viability,COR-L 105; first compound 0.253 µM,0.395
same,relative viability,COR-L 105; first compound 0.8 µM,0.377
same,relative viability,COR-L 105; first compound 2.53 µM,0.396
same,relative viability,COR-L 105; first compound 8 µM,0.351
same,relative viability,NCI-H2009; first compound 0.08 µM,0.955
same,relative viability,NCI-H2009; first compound 0.253 µM,0.977
same,relative viability,NCI-H2009; first compound 0.8 µM,0.861
same,relative viability,NCI-H2009; first compound 2.53 µM,0.715
same,relative viability,NCI-H2009; first compound 8 µM,0.763
same,relative viability,NCI-H2170; first compound 0.08 µM,0.277
same,relative viability,NCI-H2170; first compound 0.253 µM,0.278
same,relative viability,NCI-H2170; first compound 0.8 µM,0.276
same,relative viability,NCI-H2170; first compound 2.53 µM,0.283
same,relative viability,NCI-H2170; first compound 8 µM,0.272
same,relative viability,HOP-62; first compound 0.08 µM,0.917
same,relative viability,HOP-62; first compound 0.253 µM,1.09
same,relative viability,HOP-62; first compound 2.53 µM,0.995
same,relative viability,HOP-62; first compound 8 µM,1.06
same,relative viability,LXF-289; first compound 0.08 µM,0.863
same,relative viability,LXF-289; first compound 0.253 µM,0.937
same,relative viability,LXF-289; first compound 0.8 µM,0.882
same,relative viability,LXF-289; first compound 2.53 µM,0.87
same,relative viability,LXF-289; first compound 8 µM,0.829
same,relative viability,PC-3 [JPC-3]; first compound 0.253 µM,0.414
same,relative viability,PC-3 [JPC-3]; first compound 0.8 µM,0.409
same,relative viability,PC-3 [JPC-3]; first compound 2.53 µM,0.441
same,relative viability,PC-3 [JPC-3]; first compound 8 µM,0.406
same,relative viability,PC-14; first compound 0.253 µM,0.38
same,relative viability,PC-14; first compound 0.8 µM,0.297
same,relative viability,PC-14; first compound 2.53 µM,0.334
same,relative viability,PC-14; first compound 8 µM,0.325
same,relative viability,HARA; first compound 0.08 µM,0.765
same,relative viability,HARA; first compound 0.253 µM,0.963
same,relative viability,HARA; first compound 0.8 µM,0.755
same,relative viability,HARA; first compound 2.53 µM,0.776
same,relative viability,HARA; first compound 8 µM,0.561
same,relative viability,COR-L23; first compound 0.08 µM,0.99
same,relative viability,COR-L23; first compound 0.253 µM,0.856
same,relative viability,COR-L23; first compound 0.8 µM,0.881
same,relative viability,COR-L23; first compound 2.53 µM,0.914
same,relative viability,COR-L23; first compound 8 µM,0.862
same,relative viability,HCC-44; first compound 0.08 µM,0.952
same,relative viability,HCC-44; first compound 0.253 µM,1.08
same,relative viability,HCC-44; first compound 0.8 µM,0.975
same,relative viability,HCC-44; first compound 2.53 µM,0.96
same,relative viability,HCC-44; first compound 8 µM,0.888
same,relative viability,LC-2-ad; first compound 0.08 µM,0.943
same,relative viability,LC-2-ad; first compound 0.253 µM,0.918
same,relative viability,LC-2-ad; first compound 0.8 µM,0.918
same,relative viability,LC-2-ad; first compound 2.53 µM,0.949
same,relative viability,LC-2-ad; first compound 8 µM,0.6
same,relative viability,BEN; first compound 0.08 µM,0.615
same,relative viability,BEN; first compound 0.253 µM,0.854
same,relative viability,BEN; first compound 0.8 µM,0.73
same,relative viability,BEN; first compound 2.53 µM,0.669
same,relative viability,BEN; first compound 8 µM,0.728
same,relative viability,SK-MES-1; first compound 0.08 µM,0.468
same,relative viability,SK-MES-1; first compound 0.253 µM,0.445
same,relative viability,SK-MES-1; first compound 0.8 µM,0.451
same,relative viability,SK-MES-1; first compound 2.53 µM,0.491
same,relative viability,SK-MES-1; first compound 8 µM,0.507
same,relative viability,LU99A; first compound 0.08 µM,0.969
same,relative viability,LU99A; first compound 0.253 µM,0.982
same,relative viability,LU99A; first compound 0.8 µM,0.757
same,relative viability,LU99A; first compound 2.53 µM,1.03
same,relative viability,LU99A; first compound 8 µM,0.888
same,relative viability,HCC-15; first compound 0.08 µM,0.857
same,relative viability,HCC-15; first compound 0.253 µM,0.889
same,relative viability,HCC-15; first compound 0.8 µM,0.701
same,relative viability,HCC-15; first compound 2.53 µM,0.791
same,relative viability,HCC-15; first compound 8 µM,0.777
same,relative viability,NCI-H2126; first compound 0.08 µM,0.743
same,relative viability,NCI-H2126; first compound 0.253 µM,0.675
same,relative viability,NCI-H2126; first compound 0.8 µM,0.708
same,relative viability,NCI-H2126; first compound 2.53 µM,0.724
same,relative viability,NCI-H2126; first compound 8 µM,0.766
